Results from paper PMC6943527, “Are the Hydantoin-1,3,5-triazine 5-HT6R Ligands a Hope to a Find New Procognitive and Anti-Obesity Drug? Considerations Based on Primary In Vivo Assays and ADME-Tox Profile In Vitro” (Molecules, 2019).

Target: T1, CYP3A4 (Homo sapiens, UniProt P08684)
T1 construct: purchased Promega (Madison, WI, USA)
Assay: CYP3A4 P450-Glo drug-drug interaction assay
Assay type: in vitro ADME
Protocol: The influence of triazine derivatives on two the most involved in drug metabolism CYP (cytochrome P450) isoforms CYP3A4 and CYP2D6 was also investigated.
The study was performed using the CYP3A4 P450-Glo^TM and CYP2D6 P450-Glo^TM commercial tests provided by Promega (Madison, WI, USA). The influence of compounds on CYPs activity was tested in white polystyrene, flat-bottom Nunc^TM MicroWell^TM 96-well microplates (Thermo Scientific, Waltham, MA USA), and the bioluminescence signal was measured with a microplate reader (EnSpire) in luminescence mode, as described previously. KMP-10 and DJ-18 were tested in triplicate in the range of 0.01–25 µM for both isoforms’ P450 cytochrome. KE and QD were used as the reference compounds for CYP3A4 and CYP2D6, respectively.

T1 sequence (P08684 whole entry): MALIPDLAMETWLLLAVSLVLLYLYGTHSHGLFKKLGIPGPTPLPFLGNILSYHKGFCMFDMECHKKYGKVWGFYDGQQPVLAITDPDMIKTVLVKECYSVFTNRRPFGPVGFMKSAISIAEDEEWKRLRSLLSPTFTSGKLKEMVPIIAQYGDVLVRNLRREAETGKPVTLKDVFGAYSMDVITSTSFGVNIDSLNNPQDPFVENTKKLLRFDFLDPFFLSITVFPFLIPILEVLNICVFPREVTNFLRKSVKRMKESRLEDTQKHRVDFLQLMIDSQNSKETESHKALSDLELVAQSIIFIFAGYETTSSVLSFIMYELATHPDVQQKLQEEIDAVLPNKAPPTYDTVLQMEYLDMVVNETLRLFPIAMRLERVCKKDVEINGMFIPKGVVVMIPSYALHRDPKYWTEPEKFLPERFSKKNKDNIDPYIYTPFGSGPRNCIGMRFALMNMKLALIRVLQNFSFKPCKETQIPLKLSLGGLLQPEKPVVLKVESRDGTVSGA

SMILES: CN1CCN(c2nc(N)nc(CN3C(=O)NC(C)(c4ccc5ccccc5c4)C3=O)n2)CC1 (centres unmarked) [KMP-10, 3-((4-amino-6-(4-methylpiperazin-1-yl)-1,3,5-triazin-2-yl)methyl)-5-methyl-5-(naphthalen-2-yl)imidazolidine-2,4-dione]
- Effect on CYP3A4 activity (highest used dose of 25 µM): slight stimulation effect
- Influence on CYP3A4 (summary in comparison to SUVN-502): almost no influence
